Measured values taken from patent publication US3987197A, “3-(2'-Fluoro-4-biphenylyl)-butyric acid and salts thereof” (Boehringer Ingelheim GmbH, priority 1972, dated 1976).

Columns and labels:
[1] = system: carrageenin edema of the hind paws of the rat; test: carrageenin edema of the hind paw of the rat, anti-exudative effect, oral; format: in vivo; conditions: 3 h, FW 49-rats, oral 60 minutes before edema, 35% reduction of swelling three hours after provocation, graphic extrapolation, read-out: carrageenin edema ED35 per os
Description: (§1) The compounds were tested by standard test methods for their anti-exudativeeffects on the kaolin edema and carrageenin edema of the hind paws of the rat and for their acute toxicity by oral administration to rats.
(§2) Male FW 49-rats of an average weight of 120-150 gm were orally treated with the test compounds 30 minutes before inducement of the edema with the aid of an esophageal tube. Five hours after the provocation of the edema the averaged values of the swelling caused in the paws of the rats treated with the compounds were compared with those values measured on blind-treated control animals. By graphic extrapolation the dose leading to a 35% reduction of the swelling (ED35) was calculated from the percent reduction values measured by administration of different doses.
The provocation of the carrageenin edema was effected according to the method of Winter et al [Proc. Soc. exp. Biol. Med. 111, 544 (1962)] by subplantary injection of 0.05 ml of a 1% solution of carrageenin in a 0.85% solution of sodium chloride. The test compounds were orally administered 60 minutes before the provocation of the edema.
For the calculation of the reductive effect on the edema the values measured three hours after the provocation of the edema were used. All the other details were the same as described above in the case of the kaolin edema.

[2] = in vivo; conditions: rat, po
Description: The therapeutic index, as a measure for the therapeutic usefulness, was calculated by forming the quotient of the LD50 -value and the ED35 -value derived from the tests for anti-exudative activity against the kaolin and carrageenin edema.

[3] = acute toxicity in the rat, oral; conditions: in vivo, male and female FW 49-rats (1:1), oral as trituration in tylose, 14 days, Litchfield and Wilcoxon, 95% confidence limits, read-out: acute toxicity in the rat LD50 per os
Description: as §1
After oral administration to male and female FW 49-rats (ratio 1:1) having an average body weight of 135 gm, the acute toxicity (LD50 ) was determined. The substances were administered orally as trituration in tylose.
The calculation of the LD50 -values was effected, as far as possible, according to the method of Litchfield and Wilcoxon, based on the percentage of animals which died within 14 days after administration of the different doses.

[4] = system: kaolin edema of the hind paws of the rat; test: kaolin edema of the hind paw of the rat, anti-exudative effect, oral; format: in vivo; conditions: 5 h, male FW 49-rats, oral 30 minutes before edema, 35% reduction of swelling five hours after provocation, graphic extrapolation, read-out: kaolin edema ED35 per os
Description: as §1
The kaolin edema was induced according to the method of Hillebrecht [Arzneimitted-Forsch. 4, 607 (1954)] by subplantary injection of 0.05 ml of a 10% suspension of kaolin in a 0.85% sodium chloride solution. The measurement of the thickness of the paws was done by using the technique of Doepfner and Cerletti [Int. Arch. Allergy. Immunol. 12, 89 (1958)].
as §2

[5] = system: kaolin and carrageenin edema; test: antiexudative effect, average of kaolin and carrageenin edema tests; format: in vivo; conditions: Rattus norvegicus, po; arithmetically averaged value from ED35 kaolin edema and ED35 carrageenin edema
Text: *arithmetically averaged value from ED35 kaolin edema and ED35

## CC(CC(=O)O)c1ccc(-c2ccccc2F)cc1 (racemic) [A, 3-(2'-fluoro-4-biphenylyl)-butyric acid]
[1]
  ED35: 10.5 mg/kg
[2]
  selectivity ratio: 36.5
[3]
  LD50 at 336 h: 540 mg/kg
[4]
  ED35: 19 mg/kg
[5]
  ED35: 14.8 mg/kg
